Laboratory results: patent US20110300073A1, “18F-LABELLED THREE-AND FOUR-CARBON ACIDS FOR PET IMAGING” (priority 2008, published 2011)

What was measured:
[1] = system: prostate cancer CWR22RV1 xenografts; experiment: MicroPET imaging of nude mice with CWR22RV1 xenografts; assay type: in vivo
Protocol: Small animal PET imaging was performed on MicroPET, to evaluate the potential of 2-[^18F]-fluoropropanoic acid (2-[^18F]-FPA), and 2-[^18F]-fluorobutanoic acid (2-[^18F]-FBA) as tumor imaging agents in mice with prostate cancer CWR22RV1 xenografts. […] In addition to uptake in the tumor, there is high uptake in heart and brain.
The mice were imaged using MicroPET first with [^18F]-FDG after 4 hour fasting 1 hour post injection. The activity was allowed to decay for 20 hrs and the same mice were imaged with 2-[^18F]-FPA 1 hour post injection. In case of 2-[^18F]-FPA, the animals were not fasted. […] 2-[^18F]-FPA has high uptake in brain like [^18F]
(§1) All animal experiments were done in accordance with protocols approved by the Institutional Animal Care and Use Committee of Memorial Sloan-Kettering Cancer Center and followed National Institutes of Health guidelines for animal welfare. Subcutaneous tumors were produced in nude mice (20-25 g; Charles River Laboratories) by subcutaneous injection of 5×10^6 tumor cells in 200 μl consisting of 100 μl of cell culture medium and 100 μl of Matrigel under 2% Isofluorane anesthesia on the right forelimb of mice.
Imaging was performed by use of a dedicated small-animal PET scanner (Focus 120 microPET; Siemens Medical Solutions USA, Inc.). Mice were maintained under 2% isoflurane anesthesia in oxygen at 2 L/min during the entire scanning period. Imaging was performed one hour post administration of 11.1 MBq (300 μCi) of either 2-[^18F]-FPA or [^18F]-FDG via the lateral tail vein. An energy window of 350-700 keV and a coincidence timing window of 6 ns were used. The image data were corrected for non-uniformity of the scanner response, dead time count losses, and physical decay to the time of injection. No correction was applied for attenuation, scatter, or partial-volume averaging. The measured reconstructed spatial resolution of the Focus 120 scanner is ˜1.6 mm full width at half maximum at the center of the field of view.

[2] = system: CWR22RV1 xenografts; experiment: single isotope [18F] biodistribution study in mice with CWR22rv1 tumors; assay type: in vivo; details: for tumor to organ ratio, blood / tumor to organ ratio, bone / tumor to organ ratio, heart / tumor to organ ratio, kidneys / tumor to organ ratio, large intestine / tumor to organ ratio, liver / tumor to organ ratio, lungs / tumor to organ ratio, muscle / tumor to organ ratio, small intestine / tumor to organ ratio, spine / tumor to organ ratio, spleen / tumor to organ ratio, stomach: tail vein, nude mice with CWR22RV1 xenografts
Protocol: as §1
For single isotope ([^18F]) biodistribution studies, mice with CWR22rv1 tumors were injected intravenously in the tail vein with 3.7-5.5 MBq (100-150 μCi) of [^18F]-FPA in 200 μL of saline. Radioactivity in the syringe before and after administration was measured in an energy-calibrated dose calibrator (CRC-15R; Capintec) and exact quantity received by each animal was determined. The animals were euthanized at different time points and then the organs were harvested. [^18F] radioactivity was measured in a calibrated gamma counter (Perkin Elmer 1480 Wizard 3 Auto Gamma counter, Waltham, Mass.) using 400-600 keV energy window and decay correction. The counts were converted into activity and % ID/g was calculated by dividing with decay corrected injected activity and weight of the organ. […] In addition to tumor, there is high uptake in blood and heart. The tumor to organ ratio of 2-[^18F]-FPA at 1, 2, 3 and 4 hour post injection is: […]

[3] = system: rats; details: Dreisbach's Handbook of Poisoning; cited from earlier work
[4] = system: rats; experiment: toxicity in rats (oral LD50 / single dose); details: given at 212 mg/kg to rats
[5] = summary over 1-4 hour post injection

With `CC([18F])C(=O)O` (centres unmarked) [2-[^18F]-FPA, 2-[^18F]-fluoropropanoic acid] as the compound, how does the “uptake in brain (MicroPET)” value ([1]; 1 hour post injection) read?
The value was “high uptake”.

And the “accumulation in the kidneys of mice, unlike [18F]-FDG” value ([1]; 1 hour post injection, FIG. 1)?
Its value is “much lower accumulation”.

What about the “tumor visualization as compared to [18F]-FDG” value ([1]; 1 hour post injection, same mice, FIG. 1) of the same compound?
The value was “much more clearly”.

And the “uptake in heart (MicroPET)” value ([1]; one hour post administration)?
Its value is “high uptake”.

What about the “tumor visualization in MicroPET image” value ([1]; one hour post administration, transaxial and coronal slices, 5 minute acquisition time) of the same compound?
Its value is “easily visualized”.

What about the “biodistribution during the time of study” value ([2]; 1, 2, 3 and 4 hour post administration via tail vein) of the same compound?
Its value is “remains similar”.

And the “accumulation of tracer in tumor” value ([2]; 1-4 hour post administration)?
Its value is “considerable accumulation”.

What about the uptake in blood ([2]; 1-4 hour post administration) of the same compound?
The uptake in blood was “high uptake”.

And the “uptake in heart (biodistribution)” value ([2]; 1-4 hour post administration)?
The value was “high uptake”.

And the “tumor to organ ratio, blood” value ([2]; 1 hour post injection)?
The value was 1.05.

And the “tumor to organ ratio, bone” value ([2]; 1 hour post injection)?
Its value is 2.79.

What about the “tumor to organ ratio, heart” value ([2]; 1 hour post injection) of the same compound?
The value was 0.90.

And the “tumor to organ ratio, kidneys” value ([2]; 1 hour post injection)?
Its value is 1.43.

What about the “tumor to organ ratio, large intestine” value ([2]; 1 hour post injection) of the same compound?
Its value is 1.39.

What about the “tumor to organ ratio, liver” value ([2]; 1 hour post injection) of the same compound?
The value was 1.35.

What about the “tumor to organ ratio, lungs” value ([2]; 1 hour post injection) of the same compound?
Its value is 1.22.

And the “tumor to organ ratio, muscle” value ([2]; 1 hour post injection)?
The value was 1.79.

What about the “tumor to organ ratio, small intestine” value ([2]; 1 hour post injection) of the same compound?
Its value is 1.26.

And the “tumor to organ ratio, spine” value ([2]; 1 hour post injection)?
The value was 1.76.

What about the “tumor to organ ratio, spleen” value ([2]; 1 hour post injection) of the same compound?
Its value is 1.40.

What about the “tumor to organ ratio, stomach” value ([2]; 1 hour post injection) of the same compound?
Its value is 2.50.

What about the “tumor to organ ratio, blood” value ([2]; 2 hours post injection) of the same compound?
Its value is 1.03.

And the “tumor to organ ratio, bone” value ([2]; 2 hours post injection)?
The value was 2.14.

What about the “tumor to organ ratio, heart” value ([2]; 2 hours post injection) of the same compound?
Its value is 0.94.

What about the “tumor to organ ratio, kidneys” value ([2]; 2 hours post injection) of the same compound?
Its value is 1.57.

What about the “tumor to organ ratio, large intestine” value ([2]; 2 hours post injection) of the same compound?
Its value is 1.49.

And the “tumor to organ ratio, liver” value ([2]; 2 hours post injection)?
The value was 1.24.

And the “tumor to organ ratio, lungs” value ([2]; 2 hours post injection)?
The value was 1.17.

And the “tumor to organ ratio, muscle” value ([2]; 2 hours post injection)?
The value was 1.79.

What about the “tumor to organ ratio, small intestine” value ([2]; 2 hours post injection) of the same compound?
The value was 1.57.

And the “tumor to organ ratio, spine” value ([2]; 2 hours post injection)?
Its value is 1.61.

And the “tumor to organ ratio, spleen” value ([2]; 2 hours post injection)?
The value was 1.56.

What about the “tumor to organ ratio, stomach” value ([2]; 2 hours post injection) of the same compound?
Its value is 3.60.

And the “tumor to organ ratio, blood” value ([2]; 3 hours post injection)?
Its value is 1.04.

And the “tumor to organ ratio, bone” value ([2]; 3 hours post injection)?
The value was 2.58.

What about the “tumor to organ ratio, heart” value ([2]; 3 hours post injection) of the same compound?
The value was 1.07.

And the “tumor to organ ratio, kidneys” value ([2]; 3 hours post injection)?
Its value is 1.60.

And the “tumor to organ ratio, large intestine” value ([2]; 3 hours post injection)?
Its value is 1.51.

What about the “tumor to organ ratio, liver” value ([2]; 3 hours post injection) of the same compound?
The value was 1.33.

What about the “tumor to organ ratio, lungs” value ([2]; 3 hours post injection) of the same compound?
The value was 1.30.

What about the “tumor to organ ratio, muscle” value ([2]; 3 hours post injection) of the same compound?
The value was 1.76.

And the “tumor to organ ratio, small intestine” value ([2]; 3 hours post injection)?
Its value is 1.58.

What about the “tumor to organ ratio, spine” value ([2]; 3 hours post injection) of the same compound?
Its value is 1.57.

And the “tumor to organ ratio, spleen” value ([2]; 3 hours post injection)?
Its value is 1.62.

What about the “tumor to organ ratio, stomach” value ([2]; 3 hours post injection) of the same compound?
The value was 4.48.

And the “tumor to organ ratio, blood” value ([2]; 4 hours post injection)?
The value was 1.06.

What about the “tumor to organ ratio, bone” value ([2]; 4 hours post injection) of the same compound?
The value was 1.90.

What about the “tumor to organ ratio, heart” value ([2]; 4 hours post injection) of the same compound?
The value was 1.00.

What about the “tumor to organ ratio, kidneys” value ([2]; 4 hours post injection) of the same compound?
The value was 1.29.

And the “tumor to organ ratio, large intestine” value ([2]; 4 hours post injection)?
The value was 1.87.

And the “tumor to organ ratio, liver” value ([2]; 4 hours post injection)?
The value was 1.41.

And the “tumor to organ ratio, lungs” value ([2]; 4 hours post injection)?
The value was 1.32.

What about the “tumor to organ ratio, muscle” value ([2]; 4 hours post injection) of the same compound?
Its value is 1.85.

And the “tumor to organ ratio, small intestine” value ([2]; 4 hours post injection)?
Its value is 1.44.

And the “tumor to organ ratio, spine” value ([2]; 4 hours post injection)?
The value was 1.44.

What about the “tumor to organ ratio, spleen” value ([2]; 4 hours post injection) of the same compound?
Its value is 1.56.

And the “tumor to organ ratio, stomach” value ([2]; 4 hours post injection)?
Its value is 3.54.

What about the “tumor to organ ratio, heart (overall)” value [2, 5] of the same compound?
Its value is “around 0.95”.

What about the “tumor to organ ratio, most of the organs except heart” value [2, 5] of the same compound?
Its value is “greater than 1”.

For `O=C(O)CF` [2-fluoroacetic acid], which “oral LD50 in rats” value [3] is on record?
The value was 0.22 mg/kg.

With `CC(F)C(=O)O` (centres unmarked) [2-fluoropropanoic acid] as the compound, how does the toxicity in rats [4] read?
The toxicity in rats was “no toxicity was observed”.

For `OC[C@H]1OC(O)[C@H]([18F])[C@@H](O)[C@@H]1O` (some centres unmarked) [[^18F]-FDG, [^18F]-fluorodeoxyglucose, reference compound], which “uptake in brain (MicroPET)” value ([1]; 1 hour post injection) is on record?
The value was “high uptake”.
